Test results published in publication PMC9080489, “Synthesis and biological evaluation of 2-aryl-benzimidazole derivatives of dehydroabietic acid as novel tubulin polymerization inhibitors” (RSC Advances, 2018).

Key:
[1] = system: human normal hepatocyte cell line (QSG-7701); assay: MTT cytotoxic assay, QSG-7701; type: cell-based; settings: QSG7701, 48 h exposure
Description: (§1) The in vitro antiproliferative activity of DAA derivatives (1–5, 6a–k, 7a–k) were evaluated by MTT assay against human hepatocarcinoma cell line (SMMC-7721), human breast cancer cell line (MDA-MB-231), human cervical carcinoma cell line (HeLa), mouse colon cancer cell line (CT-26) and human normal hepatocyte cell line (QSG-7701). Nocodazole was co-assayed as the positive control and DMEM culture medium containing 0.1% DMSO was used as negative control. The results of the tested compounds expressed as IC50 values (concentration required to inhibit tumor cell proliferation by 50%) were presented in Table 1.
(§2) The human hepatocarcinoma cell line (SMMC-7721), human breast cancer cell line (MDA-MB-231), human cervical carcinoma cell line (HeLa), mouse colon cancer cell line (CT-26) and human normal hepatocyte cells (QSG-7701) used in this study were all obtained from Keygene Biotech., China. These cell lines were maintained in DMEM medium supplemented with 10% heat-inactivated fetal bovine serum in a humidified atmosphere of 5% CO2 at 37 °C.
(§3) The in vitro cytotoxic activities of the benzimidazole derivatives of dehydroabietic acid were evaluated against tested cell lines via the MTT colorimetric method. Briefly, different tumor cells were grown in DMEM medium supplemented with 10% fetal bovine serum, penicillin (100 U mL^−1), and streptomycin (50 μg mL^−1). Cells were harvested at log phase of growth and seeded in 96-well plates (100 μL per well at a density of 2 × 10^5 cells mL^−1). After 24 h incubation at 37 °C and 5% CO2 to allow cell attachment, cultures were exposed to various concentrations of the isolated compounds for 48 h. Finally, MTT solution (2.5 mg mL^−1 in PBS) was added (40 μL per well). Plates were further incubated for 4 h at 37 °C, and the formazan crystals formed were dissolved by adding 150 μL per well of DMSO. Absorption at 570 nm was measured with an ELISA plate reader. The results were expressed as IC50 values with standard deviations, which was defined as the concentration at which 50% survival of cells was discerned. Nocodazole was co-assayed as positive control.

[2] = system: human breast cancer cell line (MDA-MB-231); assay: MTT cytotoxic assay, MDA-MB-231; type: cell-based; settings: MDA-MB-231, MTT, 48 h exposure, read-out: IC50 MDA-MB-231
Description: as §1, §2, §3

[3] = system: SMMC-7721 cells; assay: Cell cycle analysis (PI staining, flow cytometry); type: cell-based, human; settings: 24 h; for percentage of cells in G2/M phase: control 8.86%; for percentage of cells in S phase: control 25.21%; for percentage of cells in G0/G1 phase: control 65.93%
Description: Flow cytometry was used to analyze the effects of the DAA derivative on cell growth and division. SMMC-7721 cells were treated with different concentrations of compound 6j (0, 0.1, 0.2 and 0.5 μM) for 24 h. Cell cycle distribution was investigated by flow cytometric analysis after staining the DNA of the treated cells with propidium iodide (PI).
For the flow cytometric analysis of the DNA content, SMMC-7721 cells were seeded in 6-well plates (5 × 10^5 cells per well) and incubated in the absence or presence of compound 6j at indicated concentrations for 24 h. After treatment, cells were detached with 0.25% trypsin, harvested by centrifugation, washed twice with ice-cold PBS and then fixed and permeabilized with ice-cold ethanol at 4 °C overnight. Ethanol was removed by centrifugation, and the cells were washed twice and resuspended in ice-cold PBS. After this, the cells were treated with 100 μL of 100 μg mL^−1 RNAse A at 37 °C for 30 min, followed by incubation with 400 μL of 1 mg mL^−1 DNA staining solution propidium iodide (PI) in the dark at 4 °C for 30 min. The samples were then analyzed for their DNA content by flow cytometry (Becton-Dickinson FACSCalibur, New York, USA).

[4] = target: T1, Porcine brain tubulin (Sus scrofa, UniProt P02550+P02554); assay: In vitro tubulin polymerization inhibition assay (OD340); type: biochemical; settings: 37 °C, 1 h, versus blank control
T1 construct: purchased Cytoskeleton, Inc. BK004P; host or cells: porcine brain tissue
Description: The in vitro tubulin polymerization inhibition assay was carried out by using the Tubulin Polymerization Assay Kit (Cytoskeleton, Inc., USA) according to the protocol in the manual. Porcine brain tubulin was incubated with compound 6j at concentrations of 5 and 10 μM. The positive control colchicine and negative control taxol were co-assayed at the concentration of 10 μM, and G-PEM buffer was used as the blank control.
The tubulin polymerization assay was accomplished using a commercial assay kit (cat. #BK004P) purchased from Cytoskeleton, Inc. (Danvers, MA, USA). Tubulin isolated from porcine brain tissue was used in this tubulin polymerization assay kit. Tubulin polymerizations are followed by an increase in optical density at 340 nm (OD340) over a 60 min period at 37 °C due to the light scattered by microtubule polymer. At first, tubulin (4 mg) was disovled in 1 mL of G-PEM buffer containing 80 mM piperazine-N,N′-bis(2-ethanesulfonic acid) sequisodium salt (PIPES, pH 6.9), 2.0 mM MgCl2, 0.5 mM EGTA and 1 mM GTP to prepare tubulin solution. Subsequently, 10 μL of 10 × stock solutions of the tested compounds at different concentrations were added to a prewarmed 96-well plate and incubated at 37 °C for 2 min, then 90 μL of tubulin solution was also added into each well to initiate the reaction. The optical intensity (OD340) of each well was recorded every 60 s for 60 min (Cytation 3 Cell Imaging Multi-Mode Reader, BioTek Instruments, Inc., USA). Colchicine and taxol were co-assayed as the positive control and negative control, respectively. G-PEM buffer was used as the blank control.

T1 sequence (P02554 whole entry): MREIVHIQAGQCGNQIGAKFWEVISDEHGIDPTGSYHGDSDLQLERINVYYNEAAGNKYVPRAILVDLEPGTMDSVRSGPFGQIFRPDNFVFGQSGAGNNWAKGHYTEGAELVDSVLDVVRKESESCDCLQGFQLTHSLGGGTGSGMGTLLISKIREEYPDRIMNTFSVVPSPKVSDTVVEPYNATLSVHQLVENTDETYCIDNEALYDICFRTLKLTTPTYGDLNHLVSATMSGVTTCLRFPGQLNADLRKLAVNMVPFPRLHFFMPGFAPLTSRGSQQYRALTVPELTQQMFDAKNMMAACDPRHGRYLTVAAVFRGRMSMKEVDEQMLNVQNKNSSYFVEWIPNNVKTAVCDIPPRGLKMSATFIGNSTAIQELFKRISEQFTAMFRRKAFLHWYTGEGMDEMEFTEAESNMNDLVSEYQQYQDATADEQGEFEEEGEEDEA
T1 sequence (P02550 whole entry): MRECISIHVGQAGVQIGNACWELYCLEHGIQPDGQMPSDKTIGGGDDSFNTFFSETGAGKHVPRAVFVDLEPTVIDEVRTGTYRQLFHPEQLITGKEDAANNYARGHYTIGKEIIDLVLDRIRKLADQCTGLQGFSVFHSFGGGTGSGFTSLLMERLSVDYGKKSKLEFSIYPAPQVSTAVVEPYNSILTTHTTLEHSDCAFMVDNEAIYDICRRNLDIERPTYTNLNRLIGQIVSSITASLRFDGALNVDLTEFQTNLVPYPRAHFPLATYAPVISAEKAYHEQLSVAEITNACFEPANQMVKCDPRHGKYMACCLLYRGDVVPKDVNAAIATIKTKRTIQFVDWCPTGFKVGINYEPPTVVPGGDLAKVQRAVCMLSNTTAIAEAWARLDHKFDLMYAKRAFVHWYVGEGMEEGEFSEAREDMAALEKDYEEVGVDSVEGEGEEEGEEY

COC(=O)[C@]1(C)CCC[C@]2(C)c3cc(Br)c4nc(-c5ccc6[nH]ccc6c5)[nH]c4c3CCC12 (stereo partly shown) [Compound 6j, Methyl 2′-(1H-indol-5-yl)-12-bromo-13,14-imidazolyl-deisopropyl-dehydroabietate]
IC50 [1]: 5.82 ± 0.38 µM | IC50 [2]: 0.19 ± 0.04 µM | percentage of cells in G2/M phase ([3]; 0.1 μM): 13.65% | percentage of cells in S phase ([3]; 0.1 μM): 29.52% | percentage of cells in G0/G1 phase ([3]; 0.1 μM): 56.83% | percentage of cells in G2/M phase ([3]; 0.2 μM): 18.37% | percentage of cells in S phase ([3]; 0.2 μM): 29.34% | percentage of cells in G0/G1 phase ([3]; 0.2 μM): 52.28% | percentage of cells in G2/M phase ([3]; 0.5 μM): 26.42% | percentage of cells in S phase ([3]; 0.5 μM): 24.27% | percentage of cells in G0/G1 phase ([3]; 0.5 μM): 49.30% | effect on tubulin polymerization speed and final absorbance (OD340) ([4]; 10 μM): stronger than colchicine | effect on tubulin polymerization speed and final absorbance (OD340) ([4]; 5 and 10 μM): substantially decreased the polymerization speed and the final absorbance in a dose-dependent manner
